Results published in paper PMC8536644, “Enigmatic mechanism of the N-vinylpyrrolidone hepatocarcinogenicity in the rat” (Archives of Toxicology, 2021).

Tests used:
Wistar rats = experiment: Clinical observations and body weight during 5-day inhalation
Protocol: Eight-week-old male and female Wistar Crl:WI (Han) rats were obtained from Charles River Laboratories, Sulzfeld, Germany and acclimatized for 10 days. They were kept at 20–24 °C at a humidity of 30–70% in groups of six animals in polysulfone cages (Tecniplast) with free access to water and feed (10 mm pellets, Provimi Kliba, Kaiseraugst, Switzerland).
The animals were acclimatized to the whole-body exposure chambers for 2 days using the inhalation stream without the test substance. […] Animals were weighed before the 2-day acclimatation to the exposure chambers and subsequently before and after the exposure to the test substance. Animals were killed in the morning after the last exposure period to perform the examinations described further down.
For the inhalation experiments, two animals per cage (DK III, Becker & CO., Castrop-Rauxel, Germany) were kept in the glass–steel inhalation chambers (volume approximately 200 L) without access to feed and water. For each test dose a constant amount of NVP was pumped by continuous infusion pumps PHD Ultra (Havard Apparatus, Holliston) to an evaporator (Glasverdampfer BASF, Ludwigshafen, Germany; Thermostat Julabo Labortechnik, Seelbach, Germany). The thus generated vapor was combined with air and introduced into the exposure chamber.

[1] = tested on: p53 transcription factor activity; parameters: method as in ToxCast (comptox.epa.gov dashboard); conditions: ref ToxCast (comptox.epa.gov dashboard); read-out: AC50 of the p53 transcription factor activity modulation; cited from earlier work
CYP 2B/3A [2] = experiment: BROD assay, liver microsomes (PXR marker); type: in vivo, rat; conditions: male rats
Protocol: (§1) The alkoxyresorufin dealkylase (AROD) assays were based on the method by Burke et al. ([1994]).
(§2) The frozen livers and lungs of the NVP-treated male Wistar rats were thawed and washed with isotonic (0.9%) NaCl solution. The tissues were ice-cooled homogenized (1 g tissue: 3 mL 0.25 M saccharose in 1 mM disodium EDTA, pH 7.4) and centrifuged (9000 g, 15 min, 4 °C). The supernatant fraction was centrifuged (100 000 g, 60 min, 4 °C). The resulting supernatant fraction was used for the palmitoyl-CoA-oxidase assay described further down. The pellet was taken up in 150 mM aqueous KCl solution, recentrifuged (100 000 g, 60 min, 4 °C) and the pellet taken up in 1 mL/g liver or 0.5 mL/g lung resuspension buffer (1 mM GSH, 1 mM disodium EDTA, 4 mM MgCl2, 0.1 M KH2PO4, pH 7.5 and 4% glycerol). Aliquots were stored at − 80 °C.
(§3) For determination of the enzyme activities in triplicates, 85 µL master mix (100 mM TrisHCl pH 7.5, 2 mM 5’AMP, 5 mM G-6-P, 10 U G-6-P-DH, 10 mM Dicumarol, 10 mM MgCl2, either 2 µM EROD or 10 µM PROD or 5 µM BROD) was added to 10 µL microsomal fraction (1 mg protein/mL). The reaction was started by the addition of 5 µL 2 mM NADPH (dissolved in 100 mM TrisHCl pH 7.5) followed by incubation at 37 °C for 16 min. The activity was determined by measuring the increase of the fluorescence (excitation at 550 nm, emission at 585 nm) due to resorufin formation compared with resorufin standards, which had been prepared by dissolving tenfold concentrated solutions in DMSO, which were then diluted tenfold in 100 mM TrisHCl pH 7.5.

CYP 2B/3A [3] = experiment: BROD inhibition control in Aroclor 1254-induced rat liver microsomes; type: biochemical; conditions: for BROD enzyme activity: 0 µM control 445.1 ± 9.1
Protocol: as §3
As a method control the described AROD assay was performed with microsomal fractions derived from liver and lung of male Wistar rats which had been treated i.p. for 5 days with aroclor 1254 (500 mg/kg bw). These control assays were performed in presence of 1 μM, 10 μM or 100 μM NVP, respectively, in order to check for potential interactions of NVP with the substrate turnover in the AROD assay.

primary rat hepatocytes = experiment: Gene expression analysis (Affymetrix) in cultivated rat hepatocytes; type: cell-based; conditions: 24 h; for Nrg1 upregulation / PDK4 upregulation / Atf3 upregulation: adj. p < 0.001
Protocol: Isolation and cultivation of primary rat hepatocytes was performed according to a published standard operation procedure (Godoy et al. [2013]) and Affymetrix gene array analysis as described in Grinberg et al. ([2018]). Briefly, male Wistar rats with a body weight of 220–300 g were purchased from Charles River (Sulzfeld, Germany). The animals had free access to food (sniff, Soest, Germany) and water and were kept under controlled temperature (18–26 °C), humidity (30–70%) and lighting (12 h light/dark circle). Prior to any experimental procedure, the animals were acclimated for a minimum of 6 days. This study was approved by the local committee for the welfare of experimental animals and was performed in accordance with national legislation. RNA was extracted from cultivated primary hepatocytes as described by Heise et al. ([2012]). Incubation of the cultivated rat hepatocytes with the test compounds was performed for 24 h. Rat hepatocytes were cultivated as sandwich cultures using 6well dishes. Three independent incubations with the test compound were performed. For Affymetrix gene chip analysis samples isolated from the 6-well dishes were stored in RNAprotect reagent from Qiagen until isolation of RNA. The RNA was quantified using a NanoDrop N-1000 spectrophotometer, and the integrity of RNA was confirmed with a standard sense automated gel electrophoresis system. Samples were used for transcriptional profiling only when their RNA quality indicator (RQI) number was > 8. First-strand cDNA was synthesized from 100 ng total RNA using an oligo-dT primer with an attached T7 promoter sequence, followed by the complementary second strand. The double-stranded cDNA molecule was used for in vitro transcription (IVT, standard Affymetrix procedure) using Genechip 3′ IVT Express Kit. During synthesis of the aRNA (amplified RNA, also commonly referred to as cRNA), a biotinylated nucleotide analogue was incorporated, which served as a label for the message. After amplification, aRNA was purified with magnetic beads and 15 µg of aRNA was fragmented with the fragmentation buffer as per the manufacturer’s instructions. Then 12.5 µg fragmented aRNA was hybridized with Affymetrix Rat Genome 230 2.0 Arrays. The chips were placed in a GeneChip Hybridization Oven-645 for 16 h at 60 rpm and 45 °C. For staining and washing, Affymetrix HWS kits were used on a Genechip Fluidics Station-450. For scanning, the Affymetrix GeneChip Scanner-3000-7G was used, and the image and quality control assessments were performed with Affymetrix GCOS software. All reagents and instruments were acquired from Affymetrix (Affymetrix, Santa Clara, CA, USA). The generated CEL files were used for further statistical analysis as described in Grinberg et al., 2018).

rat lung cells = experiment: Trypan Blue viability of the single cell suspension, lung; type: in vivo; conditions: lung, 5 days, individual animals
Protocol: The organ parts (see above) were washed in mincing buffer (50 mM EDTA in HBSS [without Ca^2+ and Mg^2+] pH 7.5: DMSO 9:1 (v/v), the latter added shortly before use, stored at 4 °C), cut into 1 to 2-mm pieces in ice-cold mincing buffer and transferred to a cell sieve with 70-µm pores. The viability of the cell suspension was evaluated by the Trypan Blue Assay (Strober [2001]).

CYP1A = experiment: EROD assay, liver microsomes of NVP-treated rats (AhR marker); type: in vivo, rat; conditions: male rats
Protocol: as §1, §2, §3

BALB/3T3 cells = tested on: BALB/3T3 cells; parameters: method as in MAK [1994]; conditions: ref MAK [1994]; cited from earlier work
[4] = tested on: L5178Y mouse lymphoma cells; parameters: method as in MAK [1994]; conditions: ref MAK [1994]; cited from earlier work

For `C=CN1CCCC1=O` [NVP, N-vinylpyrrolidone], the “Mortality during the 5-day exposure” value (Wistar rats; 5, 10, 20 ppm inhalation, male and female) was “None of the exposed rats died”, the Body weight increase (Wistar rats; 10 ppm, males, p ≤ 0.05) was “reduced” and the “Slightly increased salivation, animals affected” value (Wistar rats; day 2 of exposure) was 1 of 48. The “Red nose effluent, animals affected” value (Wistar rats; days 4 or 5 of exposure) was 5 of 48, the AC50 [1] was 40 nM and the “Liver microsomal BROD activity” value (CYP 2B/3A [2]; 5 ppm) was 54.5 ± 11.3 pmol/min/mg protein. For the same compound, the “Liver microsomal BROD activity” value (CYP 2B/3A [2]; 10 ppm) was 61.7 ± 16 pmol/min/mg protein, the “Liver microsomal BROD activity” value (CYP 2B/3A [2]; 20 ppm) was 42.1 ± 16.5 pmol/min/mg protein and the BROD enzyme activity (CYP 2B/3A [3]; 1 µM NVP) was 470.1 ± 29.7 pmol/min/mg protein. The BROD enzyme activity (CYP 2B/3A [3]; 10 µM NVP) was 445.1 ± 20.9 pmol/min/mg protein, the BROD enzyme activity (CYP 2B/3A [3]; 100 µM NVP) was 456.5 ± 30.9 pmol/min/mg protein and the “Inhibition of BROD activity” value (CYP 2B/3A [3]; 1, 10 or 100 µM NVP) was “does not lead to inhibition”. The Nrg1 upregulation (primary rat hepatocytes; 40 µM) was 3.5 fold, the PDK4 upregulation (primary rat hepatocytes; 40 µM) was 3.5 fold and the Atf3 upregulation (primary rat hepatocytes; 200 µM) was 5.1. The Nrg1 upregulation (primary rat hepatocytes; 200 µM) was 6.2 fold, the PDK4 upregulation (primary rat hepatocytes; 200 µM) was 5.9 fold and the Atf3 upregulation (primary rat hepatocytes; 1000 µM) was 7.1. For the same compound, the Nrg1 upregulation (primary rat hepatocytes; 1000 µM) was 7.3 fold, the PDK4 upregulation (primary rat hepatocytes; 1000 µM) was 8.8 fold and the “Lowest concentration with expression changes (PCA)” value (primary rat hepatocytes; 8, 40, 200 and 1000 µM tested) was 8 µM. The “Individual viability (%)” value (rat lung cells; female, Comet with FPG (Table 11), 20 ppm inhalation) was 95%, the “Individual viability (%)” value (rat lung cells; female, no FPG, 20 ppm inhalation) was 96% and the “Individual viability (%)” value (rat lung cells; male, Comet with FPG (Table 10), 10 ppm inhalation) was 93%. The “Individual viability (%)” value (rat lung cells; male, no FPG, 10 ppm inhalation) was 93%, the “Liver microsomal EROD activity” value (CYP1A; 5 ppm) was 20.5 ± 3.6 pmol/min/mg protein and the “Liver microsomal EROD activity” value (CYP1A; 10 ppm) was 22.0 ± 5.8 pmol/min/mg protein. The “Liver microsomal EROD activity” value (CYP1A; 20 ppm) was 16.9 ± 6.4 pmol/min/mg protein, the “BALB/3T3 cell transformation test result” value (BALB/3T3 cells) was “negative” and the “Mammalian cell mutation tests (HGPRT and TK locus) result” value [4] was “negative”.
